In patent US8461362B2, “Protein phosphatase 2A-activating agents” (The Ohio State University Research Foundation, priority 2009, dated 2013):
Residues, ends and D or L forms follow the SMILES beside them. *: point of attachment. Cbz = O=C(OCc1ccccc1)*

Legend:
Sp1 = Sp1 protein expression, stability and ubiquitination in LNCaP cells; type: cell-based; details: proteasome inhibition, LNCaP cells treated with TS-1
Description: (§1) Cells cultured in T25 flasks were collected by scraping, and cell pellets were washed once with PBS. Cells were lysed in a lysis buffer consisting of 1% SDS, 10 mM EDTA and 50 mM Tris-HCl, pH 8.1, in the presence of a commercial protease inhibitor cocktail from Aldrich-Sigma (2 mM AEBSF, 1 mM EDTA, 130 μM bestatin, 14 μM E-64, 1 μM leupeptin, and 0.3 μM aprotinin). Following a 10-sec sonication using 20% output in a Virsonic 300 sonicator (Virtis, Gardiner N.Y.) to disrupt cellular organelles and genomic DNA, cell lysates were centrifuged at 15,200×g for 15 minutes. One μL of the suspension was used for protein determination using a colorimetric BCA assay (Pierce, Rockford, Ill.), and to the remaining solution was added an equivalent volume of 2×SDS-polyacrylamide gel electrophoresis sample loading buffer (62.5 mM Tris-HCl, pH 6.8, 4% SDS, 5% β-mercaptoethanol, 20% glycerol, and 0.1% bromophenol blue), and boiled for 5 min. Equal amounts of proteins were resolved in 8% SDS-polyacrylamide gels, and transferred to nitrocellulose membranes using a semidry transfer cell. The transblotted membrane was washed twice with Tris-buffered saline containing 0.1% Tween 20 (TBST). After blocking with TBST containing 5% nonfat milk for 40 min, the membrane was incubated with the appropriate primary antibody in TBST-1% nonfat milk at 4° C. overnight. All primary antibodies were diluted 1:1000 in 1% nonfat milk-containing TBST. After treatment with the primary antibody, the membrane was washed three times with TBST for a total of 15 min, followed by incubation with goat anti-rabbit or anti-mouse Immunoglobulin G (IgG)-horseradish peroxidase conjugates (diluted 1:2000) for 1 h at room temperature and four washes with TBST for a total of 1 h. The immunoblots were visualized by enhanced chemiluminescence.
LNCaP cells were co-transfected with 5 μg each of Flag-Sp1 and HA-ubiquitin plasmids in an Amaxa Nucleofector using a LNCaP-specific nucleofector kit. These transiently transfected cells were seeded in 6-well plates at 2×10^5 per well. After 48-h incubation, cells were exposed to VES or TS-1 at the indicated concentration for 48 h, and lysed by a radioimmunoprecipitation assay lysis buffer (Santa Cruz Biotechnology) in the presence of a freshly prepared cocktail of phosphatase and protease inhibitors (2 mmol/L AEBSF, 1 mM EDTA, 130 μM bestatin, 14 μM E-64, 1 μM leupeptin, and 0.3 μM aprotinin, 2 mM imidazole, 1 mM sodium fluoride, 1.15 mM sodium molybdate, 1 mM sodium orthovanadate, and 4 mmol/L sodium tartrate dihydrate). After centrifugation at 13,000×g for 15 min, the supernatants were collected, preincubated with protein A/G agarose (Santa Cruz Biotechnology) for 15 min, and centrifuged at 1,000×g for 5 min. Supernatant (20 μL) were stored at 4° C. to be used as input, whereas the remaining supernatant was exposed to 4 μg of anti-Sp1 antibodies at 4° C. for 12 h, followed by protein A/G agarose beads at 4° C. for another 2 h. After brief centrifugation, immunoprecipitates were collected, washed with the aforementioned lysis buffer four times, suspended in 2×SDS sample buffer, and subjected to Western blot analysis with antibodies against HA and Flag.

[1] = system: androgen-independent prostate cancer; details: minimally pretreated patients with androgen-independent prostate cancer; cited from earlier work
[2] = system: AR and its target gene product PSA in LNCaP cells; experiment: Western blot of AR and PSA expression in LNCaP cells; type: cell-based; details: PP2A inhibitor co-treatment with VES or TS-1
Description: as §1

For `CC(C)C[C@@H](C=O)NC(=O)[C@H](CC(C)C)NC(=O)[C@H](CC(C)C)NC(=O)OCc1ccccc1` [MG-132] (Cbz-Leu-Leu-Leu-aldehyde), the “protection of Sp1 from TS-1-facilitated ablation” value (Sp1) was “protected Sp1 from TS-1-facilitated ablation”.

For `Cn1cncc1[C@@](N)(c1ccc(Cl)cc1)c1ccc2c(c1)c(-c1cccc(Cl)c1)cc(=O)n2C` [R115777], the “anti-tumor activity in patients” value [1] is given as “little anti-tumor activity”.

With `CC[C@H](C)[C@H](NC(=O)[C@H]([C@@H](C)CC)N(C)C(C)=O)C(=O)N[C@H](C(=O)N[C@@H](CC(C)C)C(=O)[C@@]1(C)CO1)[C@@H](C)O` [epoxomicin] the “protection of Sp1 from TS-1-facilitated ablation” value (Sp1) was “protected Sp1 from TS-1-facilitated ablation”.

With `C=C1[C@@H](O)[C@@H]2O[C@]3(CC[C@H](/C=C/[C@@H](C)[C@@H]4CC(C)=C[C@@]5(O[C@H](C[C@@](C)(O)C(=O)O)CC[C@H]5O)O4)O3)CC[C@H]2O[C@@H]1[C@@H](O)C[C@H](C)[C@H]1O[C@@]2(CCCCO2)CC[C@H]1C` [okadaic acid] the “protection from VES/TS-1 suppression of phosphorylation or expression of JNK, Sp1 and AR” value [2] was “could protect cells from the suppressive effect”.
